Assay results taken from PubChem BioAssay AID1918953 (Molecular Pharmacology Branch, DTP, NCI, 2023).

Test system: MDA-MB-231 complex spheroid viability
Experiment: Anticancer human tumor MDA-MB-231/ATCC cell line growth inhibition;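 note: drug exposure lasted 7 days starting on day 3 of spheroid growth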
Conditions: for IC50: curve of first compound; for viability, T/C: stronger effect = lower value
From the text: Multicellular complex tumor spheroid response to LSD1 Inhibitor Iadademstat in combination with a variety of drugs and investigational agents in selected tumor cell lines
The current study was undertaken to assess response to LSD1 inhibitors in combination with standard-of-care drugs and investigational agents in solid tumor complex spheroid models as well as in the K-562 leukemia. Complex spheroids include a stromal component modeled by human endothelial cells (HUVEC) and fibroblasts modeled by human mesenchymal stem cells (MSCs). The concentration ranges selected for each drug and investigational agent were based upon clinically achievable concentrations if the clinical Cmax of the agent was known.
Compounds. The drugs and investigational agents used in this study are listed on Table 1. All of the agents used, including staurosporine (NSC755774) and gemcitabine (NSC613327), were obtained from the Developmental Therapeutics Program, NCI. FDA-approved anticancer drugs are available from the NCI at http://dtp.nci.nih.gov/branches/dscb/oncology_drugset_explanation.html. Drugs and investigational agents were >95% pure by proton nuclear magnetic resonance (NMR) and liquid chromatography/mass spectrometry (LC/MS). Stock solutions were prepared at 400x in DMSO, stored at -70 degrees C, and diluted in fresh medium prior to their use. The final concentration of DMSO in cell culture wells never exceeded 0.25% (v/v). The FDA-approved anticancer drug set is available from the Developmental Therapeutics Program at https://dtp.cancer.gov/organization/dscb/obtaining/available_plates.htm. All drugs and investigational agents were tested over a range starting from a high concentration at or near the clinical Cmax and decreasing in half-log increments. If the clinical Cmax for an agent had not been determined, the highest concentration tested was 10 microM.
Cell Lines. The patient-derived cancer cell (PDC) lines: 292921-168-R-J2-PDC, K24384-001-R-PDC, and 521955-158-R2-J5-PDC pancreatic carcinomas, 556581-035-R-J1 ovarian carcinoma, 324938-238-R-J1-PDC, 855422-203-R-J1-PDC and 883617-216-R-J1-PDC urothelial bladder carcinomas, 743489-274-T-PDC renal cell carcinoma, 138582-R-J1 Merkel cell tumor, K60290-347-R-J1 and K57222-313-R-J1-PDC glioblastomas, 653999-131-R-J2-PDC, LG0703-F948-PDC, and 349418-098-R-PDC non-small cell lung carcinomas, 885512-296-R-J2-PDC, 171881-019-R-J1-PDC breast carcinomas and 186277-243-T-J2-PDC and 233499-124-R-J2-PDC colon carcinomas were obtained from the NCI Patient-Derived Models Repository (PDMR, https://pdmr.cancer.gov). The established cell lines NCI/ADR-RES (RRID:CVCL_14520 and OVCAR-5 (RRID:CVCL_1628) ovarian carcinomas, 786-O (RRID:CVCL_1051) and A498 (RRID:CVCL_A498) renal cell carcinoma, NCI-H211 (ATCC, cat. CRL-5824; RRID:CVCL_1529), NCI-H196 (ATCC, cat. CRL-5823, RRID:CVCL_1509), SW 1271 (ATCC, cat. CRL-2177, RRID:CVCL_1716) and NCI-H1876 (ATCC, cat. CRL-5902, RRID:CVCL_1503) small cell lung carcinomas, MDA-MB-231 (RRID:CVCL_0062) and MDA-MB-468 (RRID:CVCL_0419)breast carcinomas (10-12). Pooled donor human umbilical vein endothelial cells (HUVEC, Lonza, cat. CC-2519) and human mesenchymal stem cells (hMSC, Lonza, cat. PT-2501) were purchased from Lonza (Walkersville, MD).
Cell Culture. All cells were maintained in an incubator at 37 degrees C and 5% CO2 with 95% humidity. The PDC lines were cultured according to standard operating procedures established by the NCI PDMR (https://pdmr.cancer.gov). Briefly all PDCs were thawed and cultured in Matrigel-coated flasks prepared with a working solution of 1X Ham's F-12 nutrient mix, without supplementation (Invitrogen, Waltham, MA, cat. 11765054), 100 U/mL penicillin-streptomycin (Invitrogen, cat. 15140122), and 2.5% Matrigel (Corning Inc., Corning, NY, cat. 354248) for the first three passages. […]

SMILES: CC[C@@]1(O)C(=O)OCc2c1cc1n(c2=O)Cc2cc3c(CN(C)C)c(O)ccc3nc2-1 + NC1CC1c1ccc(-c2cccc(O)c2)cc1
- IC50 (second compound 0.1 µM): 1630 pM
- IC50 (second compound 0.316 µM): 845 pM
- IC50 (second compound 1 µM): 672 pM
- IC50 (second compound 3.16 µM): 1040 pM
- IC50 (second compound 10 µM): < 316 pM
- viability, T/C (second compound 0.1 µM, first compound 0.000316 µM): 72.6%
- viability, T/C (second compound 0.1 µM, first compound 0.001 µM): 62.5%
- viability, T/C (second compound 0.1 µM, first compound 0.00316 µM): 33.1%
- viability, T/C (second compound 0.1 µM, first compound 0.01 µM): 23.5%
- viability, T/C (second compound 0.1 µM, first compound 0.0316 µM): 27.3%
- viability, T/C (second compound 0.1 µM, first compound 0.1 µM): 22%
- viability, T/C (second compound 0.316 µM, first compound 0.000316 µM): 61.8%
- viability, T/C (second compound 0.316 µM, first compound 0.001 µM): 48.1%
- viability, T/C (second compound 0.316 µM, first compound 0.00316 µM): 28.9%
- viability, T/C (second compound 0.316 µM, first compound 0.01 µM): 25.3%
- viability, T/C (second compound 0.316 µM, first compound 0.0316 µM): 26%
- viability, T/C (second compound 0.316 µM, first compound 0.1 µM): 20.4%
- viability, T/C (second compound 1 µM, first compound 0.000316 µM): 62.3%
- viability, T/C (second compound 1 µM, first compound 0.001 µM): 43.6%
- viability, T/C (second compound 1 µM, first compound 0.00316 µM): 32%
- viability, T/C (second compound 1 µM, first compound 0.01 µM): 25.1%
- viability, T/C (second compound 1 µM, first compound 0.0316 µM): 24.6%
- viability, T/C (second compound 1 µM, first compound 0.1 µM): 20.5%
- viability, T/C (second compound 3.16 µM, first compound 0.000316 µM): 57.2%
- viability, T/C (second compound 3.16 µM, first compound 0.001 µM): 50.8%
- viability, T/C (second compound 3.16 µM, first compound 0.00316 µM): 29.4%
- viability, T/C (second compound 3.16 µM, first compound 0.01 µM): 25.5%
- viability, T/C (second compound 3.16 µM, first compound 0.0316 µM): 25%
- viability, T/C (second compound 3.16 µM, first compound 0.1 µM): 20.9%
- viability, T/C (second compound 10 µM, first compound 0.000316 µM): 49%
- viability, T/C (second compound 10 µM, first compound 0.001 µM): 36.1%
- viability, T/C (second compound 10 µM, first compound 0.00316 µM): 24.3%
- viability, T/C (second compound 10 µM, first compound 0.01 µM): 22.5%
- viability, T/C (second compound 10 µM, first compound 0.0316 µM): 22.3%
- viability, T/C (second compound 10 µM, first compound 0.1 µM): 16.2%
